Results reported in the supplement of paper PMC10307832.

Tests used:
Test in all cases: relative viability (nuclei count vs DMSO), 5 days (fraction); higher = more cells survive
IU1-47 + Linsitinib = compound: CC1=CC(=C(N1C2=CC=C(C=C2)Cl)C)C(=O)CN3CCCCC3 [IU1-47] + C[C@]1(O)C[C@@H](c2nc(-c3ccc4ccc(-c5ccccc5)nc4c3)c3c(N)nccn32)C1 [Linsitinib] (partner 1 µM)
How it was run: (§1)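 A single step with final 0.05% Triton X-100, 1% formaldehyde and 1 ug/ml Hoechst fixed the cells and stained nuclei 5 days after treatment. Lung cancer cell lines in 1536-well plates had been treated by pin tool the day after seeding with one drug alone or a fixed anchor-drug dose plus five library-drug doses (not always all listed) in √10 steps, and nuclei were counted on 4× images. Relative viability is the ratio of nuclei in treated wells to nuclei in vehicle wells, taken as the median of duplicate plates.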

IU1-47 + Phenformin = compound: CC1=CC(=C(N1C2=CC=C(C=C2)Cl)C)C(=O)CN3CCCCC3 [IU1-47] + N=C(N)NC(=N)NCCc1ccccc1 [Phenformin] (partner 250 µM)
How it was run: as §1

IU1-47 + Vorinostat = compound: CC1=CC(=C(N1C2=CC=C(C=C2)Cl)C)C(=O)CN3CCCCC3 [IU1-47] + O=C(CCCCCCC(=O)Nc1ccccc1)NO [Vorinostat] (partner 1 µM)
How it was run: as §1

FG-4592 + Alpelisib = compound: Cc1nc(C(=O)NCC(=O)O)c(O)c2ccc(Oc3ccccc3)cc12 [FG-4592] + Cc1nc(NC(=O)N2CCC[C@H]2C(N)=O)sc1-c1ccnc(C(C)(C)C(F)(F)F)c1 [Alpelisib] (partner 2 µM)
How it was run: as §1

UMC-11 was tested, and the relative viability (IU1-47 + Linsitinib; first compound 0.08 µM) was 0.996, the relative viability (IU1-47 + Linsitinib; first compound 0.253 µM) was 0.978 and the relative viability (IU1-47 + Linsitinib; first compound 0.8 µM) was 1.12. The relative viability (IU1-47 + Linsitinib; first compound 2.53 µM) was 1.07, the relative viability (IU1-47 + Linsitinib; first compound 8 µM) was 0.952 and the relative viability (IU1-47 + Phenformin; first compound 0.08 µM) was 0.315. It also gave a relative viability (IU1-47 + Phenformin; first compound 0.253 µM) of 0.326, a relative viability (IU1-47 + Phenformin; first compound 0.8 µM) of 0.322 and a relative viability (IU1-47 + Phenformin; first compound 2.53 µM) of 0.349. It also gave a relative viability (IU1-47 + Phenformin; first compound 8 µM) of 0.367, a relative viability (IU1-47 + Vorinostat; first compound 0.08 µM) of 0.409 and a relative viability (IU1-47 + Vorinostat; first compound 0.253 µM) of 0.408. It also gave a relative viability (IU1-47 + Vorinostat; first compound 0.8 µM) of 0.374, a relative viability (IU1-47 + Vorinostat; first compound 2.53 µM) of 0.413 and a relative viability (IU1-47 + Vorinostat; first compound 8 µM) of 0.377. It also gave a relative viability (FG-4592 + Alpelisib; first compound 0.08 µM) of 1.03, a relative viability (FG-4592 + Alpelisib; first compound 0.253 µM) of 0.944 and a relative viability (FG-4592 + Alpelisib; first compound 0.8 µM) of 1. It also gave a relative viability (FG-4592 + Alpelisib; first compound 2.53 µM) of 1.18 and a relative viability (FG-4592 + Alpelisib; first compound 8 µM) of 0.998.
